Measured values taken from US20230052528A1 (priority 2019, published 2023).
Like-named read-outs stand apart in the source and are kept apart here.

Key:
H522 lung cancer cells = experiment: Cell viability, H522; assay type: cell-based; conditions: Homo sapiens
PC3 prostate cells = experiment: Cell viability, PC3; assay type: cell-based; conditions: read-out: IC50 (μM) PC3 (Prostate)
[1] = test system: MDA-MB-231 triple-negative breast cancer cells; experiment: Cell viability, MDA-MB-231; assay type: cell-based; conditions: Homo sapiens
HSAEC 1-KT cells = experiment: Cell viability, HSAEC 1-KT; assay type: cell-based; conditions: read-out: IC50 (μM) HSAEC 1-KT (Lung)
PC9 lung cancer cells = experiment: Cell viability (CellTiter-Glo), PC9; assay type: cell-based
H1975 lung cancer cells = experiment: Cell viability, H1975; assay type: cell-based; conditions: Homo sapiens
[2] = molecular target: T1, wildtype Taspase1 (split Tasp1 WT) (Homo sapiens, UniProt Q9H6P5); experiment: biochemical
T1 sequence (Q9H6P5 1-233): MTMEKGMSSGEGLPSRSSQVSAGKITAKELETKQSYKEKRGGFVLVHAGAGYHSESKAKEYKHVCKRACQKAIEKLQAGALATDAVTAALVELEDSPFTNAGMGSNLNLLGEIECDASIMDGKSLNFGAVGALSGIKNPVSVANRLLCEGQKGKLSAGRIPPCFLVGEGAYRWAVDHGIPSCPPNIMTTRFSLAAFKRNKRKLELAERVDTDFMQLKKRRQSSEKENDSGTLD
T1 sequence (Q9H6P5 234-420): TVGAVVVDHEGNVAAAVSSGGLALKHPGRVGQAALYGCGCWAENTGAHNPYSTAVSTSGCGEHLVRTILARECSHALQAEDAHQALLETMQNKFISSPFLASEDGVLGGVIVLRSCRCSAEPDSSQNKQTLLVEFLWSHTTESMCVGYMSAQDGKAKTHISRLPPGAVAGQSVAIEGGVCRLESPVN
Method: (§1) FIGS. 4A-4B. […] “Taspase1 IC50 (FAM)”=inhibition of cleavage of a Taspase1 peptide substrate; detected by fluorescence resonance energy transfer (FRET). “6.6 mM GSH added”=same assay, in the presence of 6.6 mM glutathione (GSH). […] “Ki”=Ki determined by kinact/Ki measurements, using the Taspase1/FRET-peptide assay described above.
To extend that assay, compounds are also tested in the presence of 6.6 mM GSH as a non-specific, but physiologically relevant, thiol competitor.

Taspase1 = molecular target: T2, Taspase1 (Homo sapiens, UniProt Q9H6P5); experiment: biochemical
T2 sequence (Q9H6P5 1-233): T1 sequence (Q9H6P5 1-233)
T2 sequence (Q9H6P5 234-420): T1 sequence (Q9H6P5 234-420)
Method: as §1
Ki is the binding constant that describes the energy of association for the non-covalent portion of the molecule. Kinact is the rate at which the covalent bond is formed between the small molecule and the protein.

split Tasp1 WT = molecular target: T3, split Tasp1 WT (Homo sapiens, UniProt Q9H6P5); experiment: LC-MS tethering dose-response (DR50) assay; assay type: binding; conditions: relative to the other shouldered piperazine analogs
T3 construct: residues 1-233 (alpha domain) in Multiple Cloning Site-1 (MCS-1); residues 234-420 (beta domain) in MCS-2; His6 (TEV-cleavable) (N, cleaved yes); made in house; host or cells: E. coli Rosetta2(DE3)
T3 sequence (Q9H6P5 1-233): T1 sequence (Q9H6P5 1-233)
T3 sequence (Q9H6P5 234-420): T1 sequence (Q9H6P5 234-420)

[3] = test system: PC9, H1975, H522, HSAEC 1-KT, MDA-MB-231 and PC3 cell lines; experiment: Cell viability, statements over all cell lines studied; assay type: cell-based; conditions: for EC50: read-out: EC50
[4] = Stability of shouldered triazole compound (method not described)
[5] = NCI-H522, Table 2a cytotoxicity, read-out: IC50 (μM) H522 (Lung)
[6] = MDA-MB-231, Table 2a cytotoxicity, read-out: IC50 (μM) MDA-MB-231 (Breast)
[7] = Table 2a cytotoxicity, read-out: IC50 (μM) PC9 (Lung)
[8] = NCI-H1975, read-out: IC50 (μM) H1975 (Lung), Table 2a cytotoxicity
[9] = Biochemical IC50 (nM) +6.6 mM GSH, Table 1, +6.6 mM GSH, 3FAM/QXL520 fluorescent dyes
[10] = Biochemical IC50 (nM) no GSH, Table 1, no GSH, 3FAM/QXL520 fluorescent dyes
[11] = WT IC50 (nM) 6.6 mM GSH, Table 1a, 6.6 mM GSH, average ± std dev
[12] = WT IC50 (nM) No GSH, Table 1a, no GSH, average ± std dev
[13] = read-out: kinact (s^−1), Table 1
[14] = read-out: kinact (s^−1), Table 1a
[15] = MDA-MB-231, Table 2, read-out: MDA-MB-231 [Breast]
[16] = NCI-H1975, read-out: H1975 [Lung] (uM), Table 2

SMILES | IC50 [1, 6] [µM] | IC50 (PC9 lung cancer cells; [7]) [µM] | IC50 (H1975 lung cancer cells; [8]) [µM] | IC50 [2, 9] [nM] | IC50 [2, 10] [nM] | IC50 ([2]; IC50 vs split Tasp1 WT) [nM] | IC50 [2, 11] [nM] | IC50 [2, 12] [nM] | Ki (Taspase1; Ki (uM), Table 1) [µM] | Ki (Taspase1; Ki (μM), Table 1a) [µM] | kinact (Taspase1; [13]) [s⁻¹] | kinact (Taspase1; [14]) [s⁻¹] | also measured
C=CS(=O)(=O)N1CCN(Cc2ccc(OC(F)(F)F)c(F)c2)CC1 [SMDC689, 1-(Ethenesulfonyl)-4-{[3-fluoro-4-(trifluoromethoxy)phenyl]methyl}piperazine] | 16.5 ± 1.5 | 11 ± 1 | 17.6 ± 8.3 | 661 | 51 | 51 | 661 ± 152 | 51 ± 47 | 32.9 | 45.8 ± 13.4 | 0.028 | 0.031 ± 0.003 | IC50 (H522 lung cancer cells; [5]): 20 ± 10 µM; IC50 (PC3 prostate cells; Table 2a cytotoxicity): 15 µM; IC50 (HSAEC 1-KT cells; Table 2a cytotoxicity): 13 µM
C=CS(=O)(=O)N1CCN(Cc2ccc(OC(F)(F)F)c(F)c2)[C@@H](CN2CCS(=O)(=O)CC2)C1 [SMDC275, 4-{[(2S)-4-(ethenesulfonyl)-1-{[3-fluoro-4-(trifluoromethoxy)phenyl]methyl}piperazin-2-yl]methyl}-1λ^6-thiomorpholine-1,1-dione] | 4.3 | 3.5 | 2.6 | 420 | 27 | ~20 | 420 ± 80 | 38 ± 16 |  |  |  |  | IC50 [1, 15]: 4.3 µM; IC50 (PC9 lung cancer cells; Table 2, read-out: PC9 [Lung]): 3.5 µM; binding affinity in the tethering assay (split Tasp1 WT): enhanced binding affinity; IC50 (H1975 lung cancer cells; [16]): 2.6 µM
C=CS(=O)(=O)N1CCN(Cc2cccc(OC(F)(F)F)c2)CC1 [SMDC723, 1-(3-(Trifluoromethoxy)benzyl)-4-(vinylsulfonyl)piperazine] |  |  | 27.8 ± 5.6 |  |  | 40000 |  |  |  |  |  |  | IC50 (H522 lung cancer cells; NCI-H522, read-out: IC50 (μM) H522 (Lung)): 24.4 ± 1.7 µM; IC50 (PC3 prostate cells): ~28 µM; IC50 [1, 15]: ~37 µM; IC50 ([1]; MDA-MB-231, read-out: IC50 (μM) MDA-MB-231 (Breast), Table 2a cytotoxicity): 37 µM; IC50 (HSAEC 1-KT cells): ~32 µM; IC50 (PC9 lung cancer cells; Table 2, read-out: PC9 [Lung]): ~22 µM; IC50 (PC9 lung cancer cells; read-out: IC50 (μM) PC9 (Lung), Table 2a cytotoxicity): 25.8 ± 2.7 µM; IC50 ([3]; all cell lines studied, read-out: IC50 against cell lines studied): > 20 µM; IC50 (H1975 lung cancer cells; [16]): ~20 µM
C=CS(=O)(=O)NCCCc1ccc(OC(F)(F)F)cc1 [SMDC714] |  |  |  |  |  | 16000 |  |  |  |  |  |  | 
CN(C)CCSSCCCNC(=O)Cc1ccc(OC(F)(F)F)cc1 [SMDC673, N-(3-{[2-(Dimethylamino)ethyl]disulfanyl}propyl)-2-[4-(trifluoromethoxy)phenyl]acetamide] |  |  |  |  |  | 11300 |  |  |  |  |  |  | 
C=CS(=O)(=O)N1CCN(Cc2ccc(OC(F)(F)F)c(F)c2)[C@@H](CCO)C1 [SMDC069, 2-[(2S)-4-(ethenesulfonyl)-1-{[3-fluoro-4-(trifluoromethoxy)phenyl]methyl}piperazin-2-yl]ethan-1-ol] | 6 ± 4.1 | 3.9 ± 2.6 | 3.6 ± 2.2 | 273 | 17 | ~20 | 273 ± 68 | 25 ± 16 | 23.2 | 33 | 0.082 | 0.112 | IC50 (H522 lung cancer cells; [5]): 2 µM; IC50 (PC3 prostate cells; Table 2a cytotoxicity): 3.4 µM; IC50 (HSAEC 1-KT cells; Table 2a cytotoxicity): 3.2 µM; IC50 (PC9 lung cancer cells; 72 h, FIG. 3B, read-out: IC50, reduced viability of EGFR mutant PC9 lung cancer cells): ~2 µM; EC50 [3]: 2 to 6 µM
C=CS(=O)(=O)N1CCN(Cc2ccc(OC(F)(F)F)c(F)c2)[C@@H](COCc2c[nH]nn2)C1 [SMDC556, (R)-2-(((1H-1,2,3-triazol-4-yl)methoxy)methyl)-1-(3-fluoro-4-(trifluoromethoxy)benzyl)-4-(vinylsulfonyl)piperazine] |  |  |  |  |  |  |  |  |  |  |  |  | stability [4]: too unstable
C#CCOC[C@H]1CN(S(=O)(=O)C=C)CCN1Cc1ccc(OC(F)(F)F)c(F)c1 [SMDC883, (2R)-4-(ethenesulfonyl)-1-{[3-fluoro-4-(trifluoromethoxy)phenyl]methyl}-2-[(prop-2-yn-1-yloxy)methyl]piperazine] |  |  |  | 340 | 26 | ~20 | 340 ± 30 | 26 ± 8 | 64.3 | 87 | 0.037 | 0.045 | 
C=CS(=O)(=O)N1CCN(Cc2ccc(OC(F)(F)F)cc2)CC1 [SMDC967, 1-(ethenesulfonyl)-4-{[4-(trifluoromethoxy)phenyl]methyl}piperazine] |  |  |  |  | 168 | 114 |  | 168 ± 54 | 6.02 | 30 | 0.011 | 0.004 | 
CN(C)CCSSCCCC(=O)NCc1ccc(OC(F)(F)F)cc1 [SMDC208, 4-{[2-(dimethylamino)ethyl]disulfanyl}-N-{[4-(trifluoromethoxy)phenyl]methyl}butanamide] |  |  |  |  |  | 30300 |  |  |  |  |  |  | 
C=CS(=O)(=O)N1CCN(Cc2ccc(OC(F)(F)F)c(F)c2)[C@@H](COCc2cn[nH]c2)C1 [SMDC203, (R)-2-(((1H-pyrazol-4-yl)methoxy)methyl)-1-(3-fluoro-4-(trifluoromethoxy)benzyl)-4-(vinylsulfonyl)piperazine] | 15.5 ± 2.5 | 10.3 ± 0.3 | 9.6 ± 1.5 | 237 | 22 | ~20 | 237 ± 40 | 32 ± 18 | 27.7 | 45 | 0.048 | 0.061 | IC50 (PC3 prostate cells; Table 2a cytotoxicity): 15 µM; IC50 [1, 15]: ~13 µM; IC50 (PC9 lung cancer cells; Table 2, read-out: PC9 [Lung]): 10.5 µM; EC50 [3]: 9.6 to 15.5 µM; IC50 (H1975 lung cancer cells; [16]): 8.1 µM
